Converted amounts (≈) assume the structure as drawn. Like-named read-outs stand apart in the source and are kept apart here.
What was measured:
S. aureus NRS384 = assay: Broth minimum inhibitory concentration (MIC) assay 2; format: cell-based, Staphylococcus aureus; conditions: Staphylococcus aureus, read-out: S. aureus Broth MIC
Experimental: To test the potency of rifamycin analogs of the disclosure in vitro, a broth growth inhibition assay was developed. For the assay, S. aureus NRS384 was grown in Tryptic Soy Broth (TSB) overnight, then sub-cultured 1:50 in fresh TSB and grown for an additional two hours. The culture was then pelleted via centrifugation and washed twice in PBS. The culture was then diluted to 1×10^6 cfu/mL in TSB and 100 μL of the suspension was added per well to a 2 mL dilution plate in triplicate. […] The plates were sealed and incubated at 37° C. with shaking for 24 hours, then 150 μL of each sample was added to 96 well microtiter plates and the OD600 nm was read on a Spectramax i3 Minimax 300.
The broth MIC experiments were assessed in at least two independent experiments and the median value is captured below unless indicated otherwise.

[1] = tested on: intracellular S. aureus NRS384 in THP-1 macrophages; assay: Intracellular killing assay 2 (rifamycin analogs, S. aureus in THP-1 macrophages); format: cell-based, Staphylococcus aureus; conditions: Staphylococcus aureus, NRS384, 2 h, read-out: S. aureus Intracellular killing MIC
Experimental: THP-1 monocytic cell line was grown in media (RMPI+10% FBS+1% Penicillin/Streptomycin), then seeded at a density of 1e5 cells/well in a 96 well plate and differentiated into macrophages for three days prior to infection using 200 nM PMA. An overnight culture of S. aureus NRS384 was grown in RPMI, washed twice with PBS and resuspended at 1e7 cfu/mL in PBS. THP-1 were washed with warm media (RMPI without FBS) to remove the Penicillin/Streptomycin and then infected with the S. aureus suspension at a multiplicity of infection of 10:1 (S. aureus: macrophages). Plates were spun at 300×g for 5 minutes to synchronize adhesion of the bacteria, then incubated at 37° C. for 2 hours. Free-floating bacteria were removed by washing 2× with warm media and remaining extracellular S. aureus were killed by addition of media containing gentamicin (50 ug/mL). […] The compounds were added in media containing 50 µg/mL gentamicin to prevent extracellular growth of S. aureus. After 2 hours, plates were washed 2× with warm RPMI without FBS, and 100 ul of THP-1 lysis buffer (0.1% Triton in PBS) was added to each well. S. aureus survival was enumerated by colony forming units through serial dilution and plating onto TSA.
The intracellular MIC value indicated represents the median value of at least two independent experiments, unless indicated otherwise.

[2] = S. aureus NRS384 in TSB, 24 hours at 37° C., OD600, median of at least two independent experiments
[3] = lowest concentration giving intracellular S. aureus below limit of detection (50 cfu/mL) in THP-1 macrophages, median of at least two experiments

| MIC (S. aureus NRS384; [2]) | Compound | MIC [1, 3] | MIC (S. aureus NRS384; NRS384, 24 h) | MIC [1] |
| --- | --- | --- | --- | --- |
| 3.91 nM (≈ 0.00361 µg/mL) | CO[C@H]1/C=C/O[C@@]2(C)Oc3c(C)c(O)c4c(=O)c(c5oc6cc(OCCN7CC8CCC7C8)ccc6nc-5c4c3C2=O)NC(=O)/C(C)=C\C=C\[C@H](C)[C@H](O)[C@@H](C)[C@@H](O)[C@@H](C)[C@H](OC(C)=O)[C@@H]1C [Analog 16q] | 1 µM (≈ 0.924 µg/mL) | – | – |
| – | CO[C@H]1/C=C/O[C@@]2(C)Oc3c(C)c(O)c4c(=O)c(c5oc6cc(OCCNCCOCCN7CC7)ccc6nc-5c4c3C2=O)NC(=O)/C(C)=C\C=C\[C@H](C)[C@H](O)[C@@H](C)[C@@H](O)[C@@H](C)[C@H](OC(C)=O)[C@@H]1C [Analog 16r] | – | 15.6 nM (≈ 0.0149 µg/mL) | 1 µM (≈ 0.957 µg/mL) |
| 62.5 nM (≈ 0.0573 µg/mL) | CO[C@H]1/C=C/O[C@@]2(C)Oc3c(C)c(O)c4c(=O)c(c5oc6cc(OCCOCCN(C)C)ccc6nc-5c4c3C2=O)NC(=O)/C(C)=C\C=C\[C@H](C)[C@H](O)[C@@H](C)[C@@H](O)[C@@H](C)[C@H](OC(C)=O)[C@@H]1C [Analog 16s] | 1 µM (≈ 0.916 µg/mL) | – | – |
| 62.5 nM (≈ 0.0563 µg/mL) | CCN(CC)CCOc1ccc2nc3c4c5c6c(C)c(O)c4c(=O)c(c-3oc2c1)NC(=O)/C(C)=C\C=C\[C@H](C)[C@H](O)[C@@H](C)[C@@H](O)[C@@H](C)[C@H](OC(C)=O)[C@H](C)[C@@H](OC)/C=C/O[C@@](C)(O6)C5=O [Analog 16t] | 1 µM (≈ 0.9 µg/mL) | – | – |
| 1000 nM (≈ 0.928 µg/mL) | CO[C@H]1/C=C/O[C@@]2(C)Oc3c(C)c(O)c4c(=O)c(c5oc6cc(OCCN(C(C)C)C(C)C)ccc6nc-5c4c3C2=O)NC(=O)/C(C)=C\C=C\[C@H](C)[C@H](O)[C@@H](C)[C@@H](O)[C@@H](C)[C@H](OC(C)=O)[C@@H]1C [Analog 16u] | 1 µM (≈ 0.928 µg/mL) | – | – |
| 62.5 nM (≈ 0.0584 µg/mL) | CO[C@H]1/C=C/O[C@@]2(C)Oc3c(C)c(O)c4c(=O)c(c5oc6cc(OCCN(C)c7ccccn7)ccc6nc-5c4c3C2=O)NC(=O)/C(C)=C\C=C\[C@H](C)[C@H](O)[C@@H](C)[C@@H](O)[C@@H](C)[C@H](OC(C)=O)[C@@H]1C [Analog 16v] | 1 µM (≈ 0.935 µg/mL) | – | – |
| 62.5 nM (≈ 0.0593 µg/mL) | CO[C@H]1/C=C/O[C@@]2(C)Oc3c(C)c(O)c4c(=O)c(c5oc6cc(OCc7ccccc7CN(C)C)ccc6nc-5c4c3C2=O)NC(=O)/C(C)=C\C=C\[C@H](C)[C@H](O)[C@@H](C)[C@@H](O)[C@@H](C)[C@H](OC(C)=O)[C@@H]1C [Analog 16w] | > 1 µM | – | – |
| 0.977 nM (≈ 0.000866 µg/mL) | CO[C@H]1/C=C/O[C@@]2(C)Oc3c(C)c(O)c4c(=O)c(c5oc6cc(OCCNC(C)=O)ccc6nc-5c4c3C2=O)NC(=O)/C(C)=C\C=C\[C@H](C)[C@H](O)[C@@H](C)[C@@H](O)[C@@H](C)[C@H](OC(C)=O)[C@@H]1C [Analog 16x] | > 1 µM | – | – |
| 15.6 nM (≈ 0.014 µg/mL) | CO[C@H]1/C=C/O[C@@]2(C)Oc3c(C)c(O)c4c(=O)c(c5oc6cc(OCCn7ccnc7)ccc6nc-5c4c3C2=O)NC(=O)/C(C)=C\C=C\[C@H](C)[C@H](O)[C@@H](C)[C@@H](O)[C@@H](C)[C@H](OC(C)=O)[C@@H]1C [Analog 16y] | > 1 µM | – | – |
| 3.91 nM (≈ 0.00346 µg/mL) | CO[C@H]1/C=C/O[C@@]2(C)Oc3c(C)c(O)c4c(=O)c(c5oc6cc(OCCN7CCC7)ccc6nc-5c4c3C2=O)NC(=O)/C(C)=C\C=C\[C@H](C)[C@H](O)[C@@H](C)[C@@H](O)[C@@H](C)[C@H](OC(C)=O)[C@@H]1C [Analog 16z-1] | 1 µM (≈ 0.884 µg/mL) | – | – |
| 3.91 nM (≈ 0.00352 µg/mL) | CO[C@H]1/C=C/O[C@@]2(C)Oc3c(C)c(O)c4c(=O)c(c5oc6cc(OCCN(C)C(C)=O)ccc6nc-5c4c3C2=O)NC(=O)/C(C)=C\C=C\[C@H](C)[C@H](O)[C@@H](C)[C@@H](O)[C@@H](C)[C@H](OC(C)=O)[C@@H]1C [Analog 16z] | > 1 µM | – | – |
| 15.6 nM (≈ 0.014 µg/mL) | CO[C@H]1/C=C/O[C@@]2(C)Oc3c(C)c(O)c4c(=O)c(c5oc6cc(OC7CCN(C)CC7)ccc6nc-5c4c3C2=O)NC(=O)/C(C)=C\C=C\[C@H](C)[C@H](O)[C@@H](C)[C@@H](O)[C@@H](C)[C@H](OC(C)=O)[C@@H]1C [Analog 17] | 0.2 µM (≈ 0.18 µg/mL) | – | – |
| 3.91 nM (≈ 0.00347 µg/mL) | CO[C@H]1/C=C/O[C@@]2(C)Oc3c(C)c(O)c4c(=O)c(c5oc6cc(OCCN(C)C)cc(O)c6nc-5c4c3C2=O)NC(=O)/C(C)=C\C=C\[C@H](C)[C@H](O)[C@@H](C)[C@@H](O)[C@@H](C)[C@H](OC(C)=O)[C@@H]1C [Analog 29] | 0.04 µM (≈ 0.0355 µg/mL) | – | – |
| 3.91 nM (≈ 0.00357 µg/mL) | CO[C@H]1/C=C/O[C@@]2(C)Oc3c(C)c(O)c4c(=O)c(c5oc6cc(OCC7CCN(C)C7)cc(O)c6nc-5c4c3C2=O)NC(=O)/C(C)=C\C=C\[C@H](C)[C@H](O)[C@@H](C)[C@@H](O)[C@@H](C)[C@H](OC(C)=O)[C@@H]1C (stereo partly shown) [Analog 29a] | 0.04 µM (≈ 0.0366 µg/mL) | – | – |
| 3.91 nM (≈ 0.00363 µg/mL) | CO[C@H]1/C=C/O[C@@]2(C)Oc3c(C)c(O)c4c(=O)c(c5oc6cc(OCC7CCN(C)CC7)cc(O)c6nc-5c4c3C2=O)NC(=O)/C(C)=C\C=C\[C@H](C)[C@H](O)[C@@H](C)[C@@H](O)[C@@H](C)[C@H](OC(C)=O)[C@@H]1C [Analog 29b] | 0.04 µM (≈ 0.0371 µg/mL) | – | – |
| 3.91 nM (≈ 0.00357 µg/mL) | CO[C@H]1/C=C/O[C@@]2(C)Oc3c(C)c(O)c4c(=O)c(c5oc6cc(OCCN7CCCC7)cc(O)c6nc-5c4c3C2=O)NC(=O)/C(C)=C\C=C\[C@H](C)[C@H](O)[C@@H](C)[C@@H](O)[C@@H](C)[C@H](OC(C)=O)[C@@H]1C [Analog 29c] | 0.04 µM (≈ 0.0366 µg/mL) | – | – |
| 3.91 nM (≈ 0.00368 µg/mL) | CO[C@H]1/C=C/O[C@@]2(C)Oc3c(C)c(O)c4c(=O)c(c5oc6cc(OCCN7CC8CCC7C8)cc(O)c6nc-5c4c3C2=O)NC(=O)/C(C)=C\C=C\[C@H](C)[C@H](O)[C@@H](C)[C@@H](O)[C@@H](C)[C@H](OC(C)=O)[C@@H]1C [Analog 29d] | 0.04 µM (≈ 0.0376 µg/mL) | – | – |
| 15.6 nM (≈ 0.0147 µg/mL) | CO[C@H]1/C=C/O[C@@]2(C)Oc3c(C)c(O)c4c(=O)c(c5oc6cc(OCCN7CCN(C)CC7)cc(O)c6nc-5c4c3C2=O)NC(=O)/C(C)=C\C=C\[C@H](C)[C@H](O)[C@@H](C)[C@@H](O)[C@@H](C)[C@H](OC(C)=O)[C@@H]1C [Analog 29e] | 0.04 µM (≈ 0.0377 µg/mL) | – | – |
| 15.6 nM (≈ 0.0145 µg/mL) | CO[C@H]1/C=C/O[C@@]2(C)Oc3c(C)c(O)c4c(=O)c(c5oc6cc(OCCOCCN(C)C)cc(O)c6nc-5c4c3C2=O)NC(=O)/C(C)=C\C=C\[C@H](C)[C@H](O)[C@@H](C)[C@@H](O)[C@@H](C)[C@H](OC(C)=O)[C@@H]1C [Analog 29f] | 0.2 µM (≈ 0.186 µg/mL) | – | – |
| 3.91 nM (≈ 0.00364 µg/mL) | CO[C@H]1/C=C/O[C@@]2(C)Oc3c(C)c(O)c4c(=O)c(c5oc6cc(OCCN7CCOCC7)cc(O)c6nc-5c4c3C2=O)NC(=O)/C(C)=C\C=C\[C@H](C)[C@H](O)[C@@H](C)[C@@H](O)[C@@H](C)[C@H](OC(C)=O)[C@@H]1C [Analog 29g] | 0.2 µM (≈ 0.186 µg/mL) | – | – |
| 62.5 nM (≈ 0.0594 µg/mL) | CO[C@H]1/C=C/O[C@@]2(C)Oc3c(C)c(O)c4c(=O)c(c5oc6cc(OCCN(C)c7ccccn7)cc(O)c6nc-5c4c3C2=O)NC(=O)/C(C)=C\C=C\[C@H](C)[C@H](O)[C@@H](C)[C@@H](O)[C@@H](C)[C@H](OC(C)=O)[C@@H]1C [Analog 29h] | 1 µM (≈ 0.951 µg/mL) | – | – |
| 2.44 nM (≈ 0.0022 µg/mL) | CO[C@H]1/C=C/O[C@@]2(C)Oc3c(C)c(O)c4c(=O)c(c5oc6cc(OCCNC(C)=O)cc(O)c6nc-5c4c3C2=O)NC(=O)/C(C)=C\C=C\[C@H](C)[C@H](O)[C@@H](C)[C@@H](O)[C@@H](C)[C@H](OC(C)=O)[C@@H]1C [Analog 29i] | 0.2 µM (≈ 0.18 µg/mL) | – | – |
| 0.977 nM (≈ 0.000895 µg/mL) | CO[C@H]1/C=C/O[C@@]2(C)Oc3c(C)c(O)c4c(=O)c(c5oc6cc(OCCN(C)C(C)=O)cc(O)c6nc-5c4c3C2=O)NC(=O)/C(C)=C\C=C\[C@H](C)[C@H](O)[C@@H](C)[C@@H](O)[C@@H](C)[C@H](OC(C)=O)[C@@H]1C [Analog 29j] | 0.04 µM (≈ 0.0366 µg/mL) | – | – |
